Laboratory results: US10266535B2, “Inhibitor of FLT3 kinase and use thereof” (HEFEI INSTITUTES OF PHYSICAL SCIENCE, CHINESE ACADEMY OF …, priority 2015, dated 2019)
Structures can show the parent of a compound that is named as a salt. Where two headings read alike, the source gives them in different places.

Assays:
[1] = test system: TEL-BaF3-FLT3/ITD (stably expressing FLT3/ITD mutant activated kinase); assay: Cell proliferation, Cell Titer-Glo, TEL-BaF3-FLT3/ITD; assay type: cell-based, mouse
Method: (§1) The above cell lines were constructed by our laboratory.
(§2) The number of viable cells was determined by quantification of ATP in living cells using the Cell Titer-Glo® (Promega, USA) chemiluminescence cell viability assay kit.

[2] = test system: OCI-AML-3 (expressing FLT3 A680V mutant gene); assay: Cell proliferation, Cell Titer-Glo, OCI-AML3; assay type: cell-based; conditions: Homo sapiens, incubated for 72 hours
Method: as §1, §2

[3] = test system: MV4-11 (expressing FLT3/ITD mutant gene); assay: Cell proliferation, Cell Titer-Glo, MV4-11; assay type: cell-based; conditions: Homo sapiens
Method: as §1, §2

[4] = test system: U937 (expressing wild-type FLT3 gene); assay: Cell proliferation, Cell Titer-Glo, U937; assay type: cell-based, human; conditions: Homo sapiens, U-937, 72 h, incubated for 72 hours; read-out: U937 IC50
Method: as §1, §2

[5] = test system: MOLM-13 (expressing FLT3/ITD mutant gene and wild-type FLT3 gene); assay: Cell proliferation, Cell Titer-Glo, MOLM-13; assay type: cell-based; conditions: Homo sapiens, MOLM-13; incubated for 72 hours; read-out: MOLM-13 IC50
Method: as §1, §2

pro-B cell BaF3 = assay: Cell proliferation, Cell Titer-Glo, BaF3; assay type: cell-based; conditions: Mus musculus, incubated for 72 hours
Method: as §1, §2

[6] = test system: TEL-cKIT-BaF3 (stably expressing cKIT kinase); assay: Cell proliferation, Cell Titer-Glo, TEL-cKIT-BaF3; assay type: cell-based; conditions: Mus musculus; incubated for 72 hours
Method: as §1, §2

[7] = test system: TEL-BaF3-BMX (stably expressing BMX kinase); assay: Cell proliferation, Cell Titer-Glo, TEL-BaF3-BMX; assay type: cell-based; conditions: Mus musculus; incubated for 72 hours
Method: as §1, §2

[8] = test system: TEL-BaF3-BLK (stably expressing BLK kinase); assay: Cell proliferation, Cell Titer-Glo, TEL-BaF3-BLK; assay type: cell-based; conditions: Mus musculus; incubated for 72 hours
Method: as §1, §2

[9] = Mus musculus, 72 h, incubated for 72 hours, read-out: TEL-BaF3-FLT3/ITD IC50
[10] = MV4-11, incubated for 72 hours, read-out: MV4-11 IC50

Row | IC50 [1, 9] [µM] | IC50 [3, 10] [µM] | IC50 [4] [nM] | IC50 (pro-B cell BaF3) [nM] | SMILES | other results
1 | 1.8 | > 10 | > 10000 |  | CC(C)(C)C(=O)N1CCC[C@@H](n2nc(-c3ccc(Oc4ccccc4)cc3)c3c(N)ncnc32)C1 [Compound 55] | IC50 [2]: > 10000 nM
2 | 1.8 |  | > 10000 |  | Nc1ncnc2c1c(-c1ccc(Oc3ccccc3)cc1)nn2[C@@H]1CCCN(C(=O)c2ccc3c(c2)OCO3)C1 [Compound 18, (R)-(3-(4-amino-(4-phenoxyphenyl)-1H-pyrazolo[3,4-d]pyrimidin-1-yl)piperidin-1-yl)-(3,4-methylenedioxyphenyl)mathanone] | 
3 | 0.45 | 1.2 | > 10000 |  | CCCC(=O)N1CCC[C@@H](n2nc(-c3ccc(Oc4ccccc4)cc3)c3c(N)ncnc32)C1 [Compound 54] | IC50 [2]: > 10000 nM
4 | 0.18 | 0.429 |  | 9290 | CC(C)(C)OC(=O)NCC(=O)N1CCC[C@@H](n2nc(-c3ccc(Oc4ccccc4)cc3)c3c(N)ncnc32)C1 [Compound 59, (R)-tert-butyl 2-(3-(4-amino-3-(4-phenoxyphenyl)-1H-pyrazolo[3,4-d]pyrimidin-1-yl)piperidin-1-yl)-2-oxoethylcarbamate] | IC50 [5]: 775 nM
5 | 6 |  | > 10000 |  | COC(=O)c1ccc(C(=O)N2CCC[C@@H](n3nc(-c4ccc(Oc5ccccc5)cc4)c4c(N)ncnc43)C2)cc1 [Compound 16, (R)-methyl 4-(3-(4-amino-(4-phenoxyphenyl)-1H-pyrazolo[3,4-d]pyrimidin-1-yl)piperidine-1-carbonyl)benzoate] | 
6 | 1.8 |  | > 10000 |  | Nc1ncnc2c1c(-c1ccc(Oc3ccccc3)cc1)nn2[C@@H]1CCCN(S(=O)(=O)C(F)(F)F)C1 [Compound 3, (R)-3-(4-phenoxyphenyl)-1-(1-((trifluoromethyl)sulfonyl)piperidin-3-yl)-1H-pyrazolo[3,4-d]pyrimidin-4-amine] | 
7 | 0.48 | 0.948 |  | 7210 | CC(C)C[C@@H](O)C(=O)N1CCC[C@@H](n2nc(-c3ccc(Oc4ccccc4)cc3)c3c(N)ncnc32)C1 [Compound 61, (R)-1-((R)-3-(4-amino-(4-phenoxyphenyl)-1H-pyrazolo[3,4-d]pyrimidin-1-yl)piperidin-1-yl)-2-hydroxyl-4-methylpentan-1-one] | IC50 [5]: 2120 nM
8 | 0.2 |  | > 10000 |  | Nc1ncnc2c1c(-c1ccc(Oc3ccccc3)cc1)nn2[C@@H]1CCCN(C(=O)c2cncnc2)C1 [Compound 15, (R)-(3-(4-amino-(4-phenoxyphenyl)-1H-pyrazolo[3,4-d]pyrimidin-1-yl)piperidin-1-yl)(pyrimidin-5-yl)methanone] | 
9 | 0.49 | 0.24 |  | > 10000 | NC(=O)CC[C@H](N)C(=O)N1CCC[C@@H](n2nc(-c3ccc(Oc4ccccc4)cc3)c3c(N)ncnc32)C1 [Compound 56] | IC50 [5]: 710 nM
10 | 0.19 |  |  | > 10000 | CS(=O)(=O)N1CCC(n2nc(-c3ccc(Oc4ccccc4)cc3)c3c(N)ncnc32)CC1 [Compound 73, 1-(1-(methylsulfonyl)piperidin-4-yl)-3-(4-phenoxyphenyl)-1H-pyrazolo[3,4-d]pyrimidin-4-amine] | 

The remaining lines, values behind:

Row | SMILES | IC50 [1, 9] [µM] | IC50 [3, 10] [µM] | IC50 [4] [nM] | IC50 (pro-B cell BaF3) [nM] | other results
11 | CCS(=O)(=O)N1CCC[C@@H](n2nc(-c3ccc(Oc4ccccc4)cc3)c3c(N)ncnc32)C1 [Compound 41, (R)-3-(4-phenoxyphenyl)-1-(1-(ethylsulfonyl)piperidin-3-yl)-1H-pyrazolo[3,4-d]pyrimidin-4-amine] | 0.14 | 0.57 | 5840 |  | IC50 [2]: 4850 nM
12 | Nc1ccc(C(=O)N2CCC[C@@H](n3nc(-c4ccc(Oc5ccccc5)cc4)c4c(N)ncnc43)C2)cn1 [Compound 17, (R)-(3-(4-amino-(4-phenoxyphenyl)-1H-pyrazolo[3,4-d]pyrimidin-1-yl)piperidin-1-yl)(6-aminopyridin-3-yl)methanone] | 0.88 |  | > 10000 |  | 
13 | C[C@@H](N)C(=O)N1CCC[C@@H](n2nc(-c3ccc(Oc4ccccc4)cc3)c3c(N)ncnc32)C1 [Compound 24, (R)-2-amino-1-((R)-3-(4-amino-(4-phenoxyphenyl)-1H-pyrazolo[3,4-d]pyrimidin-1-yl)piperidin-1-yl)propan-1-one] |  |  | 7800 |  | IC50 ([1]; incubated for 72 hours, read-out: TEL-BaF3-FLT3/ITD IC50): 0.67 µM
14 | Nc1ncnc2c1c(-c1ccc(Oc3ccccc3)cc1)nn2[C@@H]1CCCN(C(=O)CCCl)C1 [Compound 36] | 0.15 | 0.67 | 8960 |  | IC50 [2]: > 10000 nM
15 | Nc1ncnc2c1c(-c1ccc(Oc3ccccc3)cc1)nn2[C@@H]1CCCN(C(=O)c2cccnc2)C1 [Compound 13, (R)-(3-(4-amino-(4-phenoxyphenyl)-1H-pyrazolo[3,4-d]pyrimidin-1-yl)piperidin-1-yl)(pyridin-3-yl)methanone] | 0.45 |  | > 10000 |  | 
16 | CN1CCN(CC(=O)N2CCC[C@@H](n3nc(-c4ccc(Oc5ccccc5)cc4)c4c(N)ncnc43)C2)CC1 [Compound 39] | 0.093 | 0.23 | 5870 |  | IC50 [2]: 4910 nM
17 | CC(Cl)C(=O)N1CCC[C@@H](n2nc(-c3ccc(Oc4ccccc4)cc3)c3c(N)ncnc32)C1 (stereo partly drawn) [Compound 38] | 0.12 | 0.97 | 7930 |  | IC50 [2]: 6510 nM
18 | CC(C)(C)CC(=O)N1CCC[C@@H](n2nc(-c3ccc(Oc4ccccc4)cc3)c3c(N)ncnc32)C1 [Compound 49] | 0.46 | 2.4 | > 10000 |  | IC50 [2]: > 10000 nM
19 | CCCCC(O)C(=O)N1CCC[C@@H](n2nc(-c3ccc(Oc4ccccc4)cc3)c3c(N)ncnc32)C1 (stereo partly drawn) [Compound 63] | 0.15 | 0.35 |  | 4690 | IC50 [5]: 720 nM
20 | CN1CCN(CCC(=O)N2CCC[C@@H](n3nc(-c4ccc(Oc5ccccc5)cc4)c4c(N)ncnc43)C2)CC1 [Compound 58] | 0.094 | 0.058 |  | 3720 | IC50 [6]: 7400 nM; IC50 [5]: 190 nM; IC50 [7]: 270 nM; IC50 [8]: 150 nM
21 | CS(=O)(=O)N1CC[C@@H](n2nc(-c3ccc(Oc4ccccc4)cc3)c3c(N)ncnc32)C1 [Compound 67, (R)-1-(1-(methylsulfonyl)pyrrolidin-3-yl)-3-(4-phenoxyphenyl)-1H-pyrazolo[3,4-d]pyrimidin-4-amine] | 0.13 | 0.42 |  | > 10000 | IC50 [5]: 1460 nM
22 | Nc1ncc(C(=O)N2CCC[C@@H](n3nc(-c4ccc(Oc5ccccc5)cc4)c4c(N)ncnc43)C2)cn1 [Compound 21, (R)-(3-(4-amino-(4-phenoxyphenyl)-1H-pyrazolo[3,4-d]pyrimidin-1-yl)piperidin-1-yl)(2-aminopyrimidin-5-yl)methanone] | 0.33 |  | > 10000 |  | 
23 | NCCCCC(=O)N1CCC[C@@H](n2nc(-c3ccc(Oc4ccccc4)cc3)c3c(N)ncnc32)C1 [Compound 62] | 0.41 | 0.38 |  | 8460 | IC50 [5]: 1200 nM
24 | CC(C)(C)OC(=O)NCC(=O)N1CC[C@@H](n2nc(-c3ccc(Oc4ccccc4)cc3)c3c(N)ncnc32)C1 [Compound 66, (R)-tert-butyl 2-(3-(4-amino-(4-phenoxyphenyl)-1H-pyrazolo[3,4-d]pyrimidin-1-yl)pyrrolidin-1-yl)-2-oxoethylcarbamate] | 0.16 | 0.73 |  | 6340 | IC50 [5]: 1600 nM
25 | CC(C)C[C@@H](N)C(=O)N1CCC(n2nc(-c3ccc(Oc4ccccc4)cc3)c3c(N)ncnc32)CC1 [Compound 74, (R)-2-amino-1-(4-(4-amino-(4-phenoxyphenyl)-1H-pyrazolo[3,4-d]pyrimidin-1-yl)piperidin-1-yl)-4-methylpentan-1-one] | 0.075 |  |  | 590 | 
26 | CN(C)CC(=O)N1CCC(n2nc(-c3ccc(Oc4ccccc4)cc3)c3c(N)ncnc32)CC1 [Compound 72, 1-(4-(4-amino-(4-phenoxyphenyl)-1H-pyrazolo[3,4-d]pyrimidin-1-yl)piperidin-1-yl)-2-(dimethylamino)ethanone] | 0.075 |  |  | 3650 | 
27 | Nc1ncnc2c1c(-c1ccc(Oc3ccccc3)cc1)nn2[C@@H]1CCCN(C(=O)C2CCNCC2)C1 [Compound 19, (R)-(3-(4-amino-(4-phenoxyphenyl)-1H-pyrazolo[3,4-d]pyrimidin-1-yl)piperidin-1-yl)-4-piperidinmethanone] | 0.79 |  | > 10000 |  | 
28 | CC(C)C[C@@H](N)C(=O)N[C@H]1CC[C@H](n2nc(-c3ccc(Oc4ccccc4)cc3)c3c(N)ncnc32)CC1 (stereo in doubt) [Compound 85, (R)-2-amino-N-(4-(4-amino-3-(4-phenoxyphenyl)-1H-pyrazolo[3,4-d]pyrimidin-1-yl)trans-1,4-cyclohexyl)-4-methylpentanamide hydrochloride] |  |  |  | 950 | IC50 ([1]; Mus musculus, 72 h, read-out: TEL-BaF3-FLT3/ITD IC50 [μM], incubated for 72 hours): 0.082 µM; IC50 ([3]; MV4-11, 72 h, read-out: MV4-11 IC50 [μM]): 0.51 µM
